In PMC4295349, “Synthetic Antimicrobial Peptides Exhibit Two Different Binding Mechanisms to the Lipopolysaccharides Isolated from Pseudomonas aeruginosa and Klebsiella pneumoniae” (International Journal of Medicinal Chemistry, 2014):
Where two headings read alike, the source gives them in different places. Where a SMILES comes first, the peptide text is derived from it. [ ]: non-standard residue; d: D form. ξ: configuration not given here. Oic = O=C(O)[C@@H]1C[C@@H]2CCCC[C@@H]2N1; Oic(3aξ,7aξ) = O=C(O)[C@@H]1CC2CCCCC2N1; Tic = O=C(O)[C@@H]1Cc2ccccc2CN1; βAla = NCCC(=O)O

Assays:
[1] = test system: K. pneumoniae BAMC 07-18; type: cell-based, Klebsiella pneumoniae
Excerpt: Table 3 In vitro minimum inhibitory concentration (MIC) and minimum bactericide concentration (MBC) activity against K. pneumonia and P. aeruginosa. | column: K. pneumoniae BAMC 07-18 / MBC (μg/mL)/(μM)

[2] = test system: P. aeruginosa PAO1; type: cell-based, Pseudomonas aeruginosa
Excerpt: Table 3 In vitro minimum inhibitory concentration (MIC) and minimum bactericide concentration (MBC) activity against K. pneumonia and P. aeruginosa. | column: P. aeruginosa PAO1 / MBC (µg/mL)/(μM)

[3] = test system: LPS isolated from P. aeruginosa; test: 1H NMR of LPS on addition of AMP; type: binding, Pseudomonas aeruginosa; conditions: 1.0 mg/mL LPS + 0.1 mg AMP in 600 μL 150 mM perdeuterated sodium acetate buffer pH 5.64 in D2O, 298 K
Description: (§1) All ^1H experiments were conducted at 298 K on a Bruker Avance III 400 MHz NMR spectrometer equipped with a 5 mm direct observe Z-gradient broad-band probe. The spectral width was 4,000 Hz, 256 FIDs were collected per experiment. Data were processed using exponential multiplication with a line-broadening function of 5 Hz. Samples contained 1.0 mg/mL of the LPS in the presence of 0.1 mg of the AMP in 600 μL of a 150 mM perdeuterated sodium acetate buffer at a pH of 5.64 in D2O.

[4] = test system: LPS isolated from K. pneumoniae; test: 1H NMR of LPS on addition of AMP; type: binding, Klebsiella pneumoniae; conditions: 1.0 mg/mL LPS + 0.1 mg AMP in 600 μL 150 mM perdeuterated sodium acetate buffer pH 5.64 in D2O, 298 K
Description: as §1

[5] = test system: K. pneumoniae BAMC 07-18; conditions: for in vitro inhibitory activity: against K. pneumoniae
[6] = test system: P. aeruginosa PAO1; conditions: for in vitro inhibitory activity: against P. aeruginosa
[7] = type: physicochemical
Description: Peptide solutions were prepared by dissolving approximately 2 mg of AMPs 70, 74, 75, 79, or 80 in 1.0 mL of phosphate buffer. […] For the LPS liposome studies 350 μL of stock LPS solution was mixed with 50 μL of stock peptide solution. CD spectroscopy is a sensitive technique, so it is commonly used to monitor conformational changes in peptides and proteins. […] All CD spectra were obtained by acquiring 8 scans using a 0.1 mm cylindrical quartz cell with a spectral range of 260 to 195 nm (at wavelengths below 195 nm the HTV exceeded 400, and therefore data collection was terminated at 195 nm) and a scanning rate of 20 nm/min. Acquisition parameters were bandwidth 1 nm, data pitch 0.2 nm, response time 2.0 s, and 5 mdeg sensitivity. Spectra were collected at room temperature (298 K). Contributions from LPS were eliminated by subtracting from the corresponding AMP-LPS solutions. All analyses of CD spectra were conducted after smoothing with a means-movement function.

[8] = K. pneumoniae BAMC 07-18, light face value
[9] = P. aeruginosa PAO1, light face value

Molecule	MBC ([1]; BAMC 07-18)	MBC [1, 8]	MBC [2, 9]	MBC ([2]; PAO1)	change of LPS 1H NMR resonances between 1.5 and 0.5 ppm (lipid A side chains) [3]	change of LPS 1H NMR resonances in the region of 1.8 to 0.7 ppm (lipid A) [4]	MIC ([5]; BAMC 07-18)	MIC [5, 8]	in vitro inhibitory activity [5]	MIC [6, 9]	MIC ([6]; PAO1)	in vitro inhibitory activity [6]	solubility in phosphate buffer at approximately 2 mg in 1.0 mL [7]
CC(C)C[C@H](NC(=O)[C@@H](N)CCCCN)C(=O)N1Cc2ccccc2C[C@H]1C(=O)N1C2CCCCC2C[C@H]1C(=O)N[C@@H](CCCCN)C(=O)NCC(=O)N1Cc2ccccc2C[C@H]1C(=O)N1C2CCCCC2C[C@H]1C(=O)N[C@@H](Cc1ccccc1)C(=O)NCC(=O)N1Cc2ccccc2C[C@H]1C(=O)N1C2CCCCC2C[C@H]1C(=O)N[C@@H](CCCCN)C(=O)NCC(=O)N1Cc2ccccc2C[C@H]1C(=O)N1C2CCCCC2C[C@H]1C(=O)N[C@@H](Cc1ccccc1)C(=O)NCC(=O)N1Cc2ccccc2C[C@H]1C(=O)N1C2CCCCC2C[C@H]1C(=O)N[C@@H](CCCCN)C(=O)NCC(=O)N1Cc2ccccc2C[C@H]1C(=O)N1C2CCCCC2C[C@H]1C(=O)N[C@@H](CCCCN)C(=O)N[C@@H](CCCCN)C(=O)N[C@@H](CCCCN)C(=O)N[C@@H](CCCCN)C(N)=O (stereo partly drawn) [AMP 79] (H-KL[Tic][Oic(3aξ,7aξ)]KG[Tic][Oic(3aξ,7aξ)]FG[Tic][Oic(3aξ,7aξ)]KG[Tic][Oic(3aξ,7aξ)]FG[Tic][Oic(3aξ,7aξ)]KG[Tic][Oic(3aξ,7aξ)]KKKK-NH2)	13.9 µM	50 µg/mL	50 µg/mL	13.9 µM	significant reduction in the peak heights	reduction in the signal intensity	13.9 µM	50 µg/mL	50 µg/mL	50 µg/mL	13.9 µM	50 µg/mL	
CC(C)C[C@H](NC(=O)[C@@H](N)CCCCN)C(=O)N1Cc2ccccc2C[C@H]1C(=O)N1[C@H](C(=O)N[C@@H](CCCCN)C(=O)N2Cc3ccccc3C[C@H]2C(=O)N2[C@H](C(=O)NCC(=O)N[C@@H](Cc3ccccc3)C(=O)N3Cc4ccccc4C[C@H]3C(=O)N3[C@H](C(=O)N[C@@H](CCCCN)C(=O)N4Cc5ccccc5C[C@H]4C(=O)N4[C@H](C(=O)NCC(=O)N[C@@H](Cc5ccccc5)C(=O)N5Cc6ccccc6C[C@H]5C(=O)N5[C@H](C(=O)N[C@@H](CCCCN)C(=O)N6Cc7ccccc7C[C@H]6C(=O)N6[C@H](C(=O)N[C@@H](CCCCN)C(=O)N[C@@H](CCCCN)C(=O)N[C@@H](CCCCN)C(=O)N[C@@H](CCCCN)C(N)=O)C[C@@H]7CCCC[C@@H]76)C[C@@H]6CCCC[C@@H]65)C[C@@H]5CCCC[C@@H]54)C[C@@H]4CCCC[C@@H]43)C[C@@H]3CCCC[C@@H]32)C[C@@H]2CCCC[C@@H]21 [AMP 75] (H-KL[Tic][Oic]K[Tic][Oic]GF[Tic][Oic]K[Tic][Oic]GF[Tic][Oic]K[Tic][Oic]KKKK-NH2)			50 µg/mL	14.6 µM	significant reduction in the peak heights	reduction in the signal intensity			≥ 100 µg/mL	50 µg/mL	14.6 µM	50 µg/mL	
CC(=O)N[C@@H](CCCCN)C(=O)N[C@@H](CC(C)C)C(=O)N1Cc2ccccc2C[C@H]1C(=O)N1[C@H](C(=O)N[C@@H](CCCCN)C(=O)N2Cc3ccccc3C[C@H]2C(=O)N2[C@H](C(=O)N[C@@H](Cc3ccccc3)C(=O)N3Cc4ccccc4C[C@H]3C(=O)N3[C@H](C(=O)N[C@@H](CCCCN)C(=O)N4Cc5ccccc5C[C@H]4C(=O)N4[C@H](C(=O)N[C@@H](Cc5ccccc5)C(=O)N5Cc6ccccc6C[C@H]5C(=O)N5[C@H](C(=O)N[C@@H](CCCCN)C(=O)N6Cc7ccccc7C[C@H]6C(=O)N6[C@H](C(=O)N[C@@H](CCCCN)C(=O)N[C@@H](CCCCN)C(=O)N[C@@H](CCCCN)C(=O)N[C@@H](CCCCN)C(N)=O)C[C@@H]7CCCC[C@@H]76)C[C@@H]6CCCC[C@@H]65)C[C@@H]5CCCC[C@@H]54)C[C@@H]4CCCC[C@@H]43)C[C@@H]3CCCC[C@@H]32)C[C@@H]2CCCC[C@@H]21 [AMP 70] (Ac-KL[Tic][Oic]K[Tic][Oic]F[Tic][Oic]K[Tic][Oic]F[Tic][Oic]K[Tic][Oic]KKKK-NH2)	>100 µg/mL			>100 µg/mL	significant reduction in the peak heights	reduction in the signal intensity	>100 µg/mL		≥ 100 µg/mL		>100 µg/mL	≥ 100 µg/mL	
CC(C)C[C@H](NC(=O)[C@@H](N)CCCCN)C(=O)N1Cc2ccccc2C[C@H]1C(=O)N1[C@H](C(=O)N[C@@H](CCCCN)C(=O)N2Cc3ccccc3C[C@H]2C(=O)N2[C@H](C(=O)N[C@@H](Cc3ccccc3)C(=O)N3Cc4ccccc4C[C@H]3C(=O)N3[C@H](C(=O)N[C@@H](CCCCN)C(=O)N4Cc5ccccc5C[C@H]4C(=O)N4[C@H](C(=O)N[C@@H](Cc5ccccc5)C(=O)N5Cc6ccccc6C[C@H]5C(=O)N5[C@H](C(=O)N[C@@H](CCCCN)C(=O)N6Cc7ccccc7C[C@H]6C(=O)N6[C@H](C(=O)N[C@@H](CCCCN)C(=O)N[C@@H](CCCNC(=N)N)C(N)=O)C[C@@H]7CCCC[C@@H]76)C[C@@H]6CCCC[C@@H]65)C[C@@H]5CCCC[C@@H]54)C[C@@H]4CCCC[C@@H]43)C[C@@H]3CCCC[C@@H]32)C[C@@H]2CCCC[C@@H]21 [AMP 22] (H-KL[Tic][Oic]K[Tic][Oic]F[Tic][Oic]K[Tic][Oic]F[Tic][Oic]K[Tic][Oic]KR-NH2)	>100 µg/mL			>100 µg/mL			>100 µg/mL		≥ 100 µg/mL		>100 µg/mL	≥ 100 µg/mL	solubility issues
H2N-KL-Tic-Oic-GK-Tic-Oic-F-Tic-Oic-GK-Tic-Oic-F-Tic-Oic-GK-Tic-Oic-KKKK-CONH2 [AMP 74]					significant reduction in the peak heights	reduction in the signal intensity			≥ 100 µg/mL			≥ 100 µg/mL	
CC(C)C[C@H](NC(=O)[C@@H](N)CCCCN)C(=O)N1Cc2ccccc2C[C@H]1C(=O)N1C2CCCCC2C[C@H]1C(=O)NCC(=O)N[C@@H](CCCCN)C(=O)N1Cc2ccccc2C[C@H]1C(=O)N1C2CCCCC2C[C@H]1C(=O)NCCC(=O)N[C@@H](Cc1ccccc1)C(=O)N1Cc2ccccc2C[C@H]1C(=O)N1C2CCCCC2C[C@H]1C(=O)NCC(=O)N[C@@H](CCCCN)C(=O)N1Cc2ccccc2C[C@H]1C(=O)N1C2CCCCC2C[C@H]1C(=O)NCCC(=O)N[C@@H](Cc1ccccc1)C(=O)N1Cc2ccccc2C[C@H]1C(=O)N1C2CCCCC2C[C@H]1C(=O)NCC(=O)N[C@@H](CCCCN)C(=O)N1Cc2ccccc2C[C@H]1C(=O)N1C2CCCCC2C[C@H]1C(=O)N[C@@H](CCCCN)C(=O)N[C@@H](CCCCN)C(=O)N[C@@H](CCCCN)C(=O)N[C@@H](CCCCN)C(N)=O (stereo partly drawn) [AMP 80] (H-KL[Tic][Oic(3aξ,7aξ)]GK[Tic][Oic(3aξ,7aξ)][βAla]F[Tic][Oic(3aξ,7aξ)]GK[Tic][Oic(3aξ,7aξ)][βAla]F[Tic][Oic(3aξ,7aξ)]GK[Tic][Oic(3aξ,7aξ)]KKKK-NH2)	13.8 µM	50 µg/mL	50 µg/mL	13.8 µM	significant reduction in the peak heights	reduction in the signal intensity	13.8 µM	50 µg/mL	50 µg/mL	25 µg/mL	6.9 µM	50 µg/mL	
